# Measurements from patent US20260355196A1, “INHIBITORS AND DEGRADERS OF PIP4K PROTEIN” (Larkspur Biosciences, Inc., priority 2023, published 2026).
# pIC50: −log10 of the molar value.
# Target: T1, PIP4K2C (Homo sapiens, UniProt Q8TBX8)
# T1 sequence (Q8TBX8 1-421): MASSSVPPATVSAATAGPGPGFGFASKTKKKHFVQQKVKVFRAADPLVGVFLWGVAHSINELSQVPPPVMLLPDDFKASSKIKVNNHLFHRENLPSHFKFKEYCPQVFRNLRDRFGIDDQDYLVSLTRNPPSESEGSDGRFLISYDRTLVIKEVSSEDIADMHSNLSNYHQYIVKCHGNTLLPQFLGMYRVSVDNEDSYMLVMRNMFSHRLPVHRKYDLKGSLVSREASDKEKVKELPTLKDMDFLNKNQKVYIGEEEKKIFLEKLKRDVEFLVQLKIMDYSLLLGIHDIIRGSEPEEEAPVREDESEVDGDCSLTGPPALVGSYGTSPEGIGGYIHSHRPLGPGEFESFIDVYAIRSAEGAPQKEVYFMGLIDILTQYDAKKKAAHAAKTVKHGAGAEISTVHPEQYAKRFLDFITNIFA
# Experiment: Enzyme Binding Assay (KINOMEscan): active site-directed competition binding to an immobilized ligand
# Design: purchased Eurofins DiscoverX, San Diego, CA 87-0007-1094
# Details: 11-point dose response, duplicate, top concentration 5 micromolar; read-out: Pip4k2c Kd: IC50
# In short: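 Active site-directed competition binding against an immobilized ligand. 11-point dose-response in duplicate, top concentration 5 micromolar; IC50 from a Hill equation fitted by the Levenberg-Marquardt algorithm.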
row,SMILES,pIC50
1,"NC(=O)[C@H]1CC[C@H](Nc2ncc(F)c(-c3cccc(N4CCCCC4=O)n3)n2)CC1 [Compound 274, trans-4-((5-fluoro-4-(6-(2-oxopiperidin-1-yl)pyridin-2-yl)pyrimidin-2-yl)amino)cyclohexane-1-carboxamide]",> 6.30
2,"CC(=O)N1CCC(Nc2ncc(F)c(N3CCC[C@H](C(=O)N4CC[C@@H](O)C4)C3)n2)CC1 [Compound 216, 1-(4-((5-fluoro-4-((S)-3-((R)-3-hydroxypyrrolidine-1-carbonyl)piperidin-1-yl)pyrimidin-2-yl)amino)piperidin-1-yl)ethan-1-one]",6.00 to 6.30
3,"CC(=O)N1CCC(Nc2ncc(Cl)c(-c3ccnc(-c4ccc(F)cc4)c3)n2)CC1 [Compound 105, 1-(4-((5-chloro-4-(2-(4-fluorophenyl)pyridin-4-yl)pyrimidin-2-yl)amino)piperidin-1-yl)ethan-1-one]",> 6.30
4,"NC(=O)[C@H]1CC[C@H](Nc2ncc(Cl)c(-c3cccc(-c4ccccc4)c3)n2)CC1 [Compound 19, trans-4-((4-([1,1′-biphenyl]-3-yl)-5-chloropyrimidin-2-yl)amino)cyclohexane-1-carboxamide]",> 6.30
5,"CC(=O)N1CCC(Nc2ncc(Cl)c(-c3cnn(C4CC4)c3)n2)CC1 [Compound 98, 1-(4-((5-chloro-4-(1-cyclopropyl-1H-pyrazol-4-yl)pyrimidin-2-yl)amino)piperidin-1-yl)ethan-1-one]",> 6.30
6,"NC(=O)[C@@H]1CCC[C@H](Nc2ncc(F)c(-c3ccc(=O)n(-c4ccc(F)cc4)c3)n2)C1 (relative stereo) [Compound 41, cis-3-((5-fluoro-4-(1-(4-fluorophenyl)-6-oxo-1,6-dihydropyridin-3-yl)pyrimidin-2-yl)amino)cyclohexane-1-carboxamide]",> 6.30
7,"NC(=O)[C@@H]1CCC[C@H](Nc2ncc(F)c(-c3cccc(N4CCOCC4=O)n3)n2)C1 (relative stereo) [Compound 627, cis-3-((5-fluoro-4-(6-(3-oxomorpholino)pyridin-2-yl)pyrimidin-2-yl)amino)cyclohexane-1-carboxamide]",> 6.30
8,"CNC(=O)[C@H]1C[C@H](Nc2ncc(Cl)c(-c3cnn(-c4cc[nH]c(=O)c4)c3)n2)C1 [Compound 133, trans-(1r,3r)-3-((5-chloro-4-(1-(2-oxo-1,2-dihydropyridin-4-yl)-1H-pyrazol-4-yl)pyrimidin-2-yl)amino)-N-methylcyclobutane-1-carboxamide]",6.00 to 6.30
9,"CNC(=O)[C@H]1CC[C@H](Nc2ncc(Cl)c(-c3cccc(-n4ccccc4=O)c3)n2)CC1 [Compound 103, trans-(1r,4r)-4-((5-chloro-4-(3-(2-oxopyridin-1 (2H)-yl)phenyl)pyrimidin-2-yl)amino)-N-methylcyclohexane-1-carboxamide]",> 6.30
10,"CC(=O)N1CCC[C@H](Nc2ncc(Cl)c(-c3cccc(-c4ccc(F)cc4)c3)n2)C1 [Compound 128, (S)-1-(3-((5-chloro-4-(4′-fluoro-[1,1′-biphenyl]-3-yl)pyrimidin-2-yl)amino)piperidin-1-yl)ethan-1-one]",> 6.30
11,"CNC(=O)[C@H]1CC[C@@H](Nc2ncc(Cl)c(-c3cnn(-c4cc[nH]c(=O)c4)c3)n2)CC1 [Compound 148, cis-(1s,4s)-4-((5-chloro-4-(1-(2-oxo-1,2-dihydropyridin-4-yl)-1H-pyrazol-4-yl)pyrimidin-2-yl)amino)-N-methylcyclohexane-1-carboxamide]",5.30 to 6.00
12,"CC(=O)N1CCC(Nc2ncc(F)c(N3CCCC(n4ccccc4=O)C3)n2)CC1 (stereo not shown) [Compound 189, 1-(1-(2-((1-acetylpiperidin-4-yl)amino)-5-fluoropyrimidin-4-yl)piperidin-3-yl)pyridin-2(1H)-one]",5.30 to 6.00
13,"CNC(=O)[C@H]1CC[C@@H](Nc2ncc(Cl)c(-c3cccc(-c4ccc(F)cc4)n3)n2)CC1 [Compound 131, cis-(1s,4s)-4-((5-chloro-4-(6-(4-fluorophenyl)pyridin-2-yl)pyrimidin-2-yl)amino)-N-methylcyclohexane-1-carboxamide]",> 6.30
14,"CC(=O)N1CCC(Nc2ncc(F)c(-c3cccc(-c4ccccc4)c3)n2)CC1 [Compound 611, 1-(4-((4-([1,1′-biphenyl]-3-yl)-5-fluoropyrimidin-2-yl)amino)piperidin-1-yl)ethan-1-one]",> 6.30
15,"CC(=O)N1CCC[C@H](Nc2ncc(Cl)c(-c3cccc(C4CCCCC4)c3)n2)C1 [Compound 39, (S)-1-(3-((5-chloro-4-(3-cyclohexylphenyl)pyrimidin-2-yl)amino)piperidin-1-yl)ethan-1-one]",> 6.30
16,"CC(=O)N1CCC(Nc2ncc(F)c(-c3cccc(N4CCOCC4=O)n3)n2)CC1 [Compound 630, 4-(6-(2-((1-acetylpiperidin-4-yl)amino)-5-fluoropyrimidin-4-yl)pyridin-2-yl)morpholin-3-one]",> 6.30
17,"CNC(=O)[C@H]1C[C@H](Nc2ncc(Cl)c(-c3cccc(-c4ccc[nH]c4=O)c3)n2)C1 [Compound 139, trans-(1r,3r)-3-((5-chloro-4-(3-(2-oxo-1,2-dihydropyridin-3-yl)phenyl)pyrimidin-2-yl)amino)-N-methylcyclobutane-1-carboxamide]",> 6.30
18,"CC(=O)N1CCC[C@H](Nc2ncc(Cl)c(N3CCC(c4ccccc4)C3)n2)C1 (stereo partly drawn) [Compound 20, 1-((3S)-3-((5-chloro-4-(3-phenylpyrrolidin-1-yl)pyrimidin-2-yl)amino)piperidin-1-yl)ethan-1-one]",5.30 to 6.00

# Now from value to compound:
row,pIC50,SMILES
1,> 6.30,"NC(=O)[C@H]1CC[C@H](Nc2ncc(F)c(-c3cccc(C4COC4)c3)n2)CC1 [Compound 180, trans-4-((5-fluoro-4-(3-(oxetan-3-yl)phenyl)pyrimidin-2-yl)amino)cyclohexane-1-carboxamide]"
2,> 6.30,"NC(=O)[C@@H]1CCC[C@H](Nc2ncc(F)c(-c3cccc(N4CCOCC4=O)c3)n2)C1 (relative stereo) [Compound 269, cis-3-((5-fluoro-4-(3-(3-oxomorpholino)phenyl)pyrimidin-2-yl)amino)cyclohexane-1-carboxamide]"
3,> 6.30,"Cc1ccc(=O)n(-c2cccc(-c3nc(N[C@H]4CC[C@H](C(N)=O)CC4)ncc3F)c2)c1 [Compound 247, trans-4-((5-fluoro-4-(3-(5-methyl-2-oxopyridin-1 (2H)-yl)phenyl)pyrimidin-2-yl)amino)cyclohexane-1-carboxamide]"
4,> 6.30,"CC(=O)N1CCC(Nc2ncc(F)c(-c3cccc(N4CCCC4=O)c3)n2)CC1 [Compound 222, 1-[3-[2-[(1-acetyl-4-piperidyl)amino]-5-fluoro-pyrimidin-4-yl]phenyl]pyrrolidin-2-one]"
5,> 6.30,"CC(=O)N[C@H]1CC[C@H](Nc2ncc(Cl)c(-c3cnn(-c4ccc(=O)[nH]c4)c3)n2)CC1 [Compound 145, trans-N-((1r,4r)-4-((5-chloro-4-(1-(6-oxo-1,6-dihydropyridin-3-yl)-1H-pyrazol-4-yl)pyrimidin-2-yl)amino)cyclohexyl)acetamide]"
6,5.30 to 6.00,"CC(=O)N[C@H]1CC[C@H](Nc2ncc(F)c(N3CCC[C@H](C(=O)NC4CC4)C3)n2)CC1 [Compound 198, trans-(S)-1-(2-((4-acetamidocyclohexyl)amino)-5-fluoropyrimidin-4-yl)-N-cyclopropylpiperidine-3-carboxamide]"
7,> 6.30,"CC(=O)N[C@H]1CC[C@H](Nc2ncc(F)c(-c3cccc(C(=O)N4CC[C@H](O)C4)c3)n2)CC1 [Compound 252, trans-N-[4-[[5-fluoro-4-[3-[(3S)-3-hydroxypyrrolidine-1-carbonyl]phenyl]pyrimidin-2-yl]amino]cyclohexyl]acetamide]"
8,> 6.30,"NC(=O)C1CCCC(Nc2ncc(F)c(-c3cccc(-n4ccccc4=O)c3)n2)C1 (stereo not shown) [Compound 40, 3-[[5-fluoro-4-[3-(2-oxo-1-pyridyl)phenyl]pyrimidin-2-yl]amino]cyclohexanecarboxamide]"
9,> 6.30,"NC(=O)[C@H]1CC[C@H](Nc2ncc(F)c(-c3cccc(-n4ccccc4=O)c3)n2)CC1 [Compound 240, trans-(1r,4r)-4-((5-fluoro-4-(3-(2-oxopyridin-1 (2H)-yl)phenyl)pyrimidin-2-yl)amino)cyclohexane-1-carboxamide]"
10,> 6.30,"NC(=O)[C@H]1CC[C@H](Nc2ncc(F)c(-c3cccc(N4CCC(O)CC4)c3)n2)CC1 [Compound 251, trans-4-((5-fluoro-4-(3-(4-hydroxypiperidin-1-yl)phenyl)pyrimidin-2-yl)amino)cyclohexane-1-carboxamide]"
11,> 6.30,"CC(=O)N[C@H]1CC[C@H](Nc2ncc(F)c(-c3ccnc(N4CCOCC4=O)c3)n2)CC1 [Compound 272, trans-N-(4-((5-fluoro-4-(2-(3-oxomorpholino)pyridin-4-yl)pyrimidin-2-yl)amino)cyclohexyl)acetamide]"
12,> 6.30,"NC(=O)[C@H]1CC[C@H](Nc2ncc(F)c(-c3ccnc(N4CCOCC4=O)c3)n2)CC1 [Compound 273, trans-4-((5-fluoro-4-(2-(3-oxomorpholino)pyridin-4-yl)pyrimidin-2-yl)amino)cyclohexane-1-carboxamide]"
13,> 6.30,"CC(=O)N[C@H]1CC[C@H](Nc2ncc(F)c(-c3cccc(N4CCC(O)CC4)c3)n2)CC1 [Compound 250, trans-N-(4-((5-fluoro-4-(3-(4-hydroxypiperidin-1-yl)phenyl)pyrimidin-2-yl)amino)cyclohexyl)acetamide]"
